For this assay, the system named is venous thrombosis. The experiment in a line: venous thrombosis test in the rat (venous stasis under hypercoagulation with factor Xa, Wessler technique). The settings on record: Wistar male rats. The format is in vivo. The method, then: The antithrombotic activity of the compounds according to the invention was studied in vivo in the rat by means of a test that reproduces a venous thrombosis.
The venous thrombosis was induced according to the protocol described in Thromb. Haemost., 1992, 67(1), 176-179. The intravenous or oral activity was studied according to the following operating protocol:
The experiments are performed on non-fasted Wistar male rats weighing 250 to 280 g, divided into groups of 10 animals each. The test products are administered either orally (tubage) dissolved or suspended in isotonic solution, or by intravenous injection dissolved in isotonic solution or in a PEG 400/water mixture. The concentration of the compounds is calculated so that the amount of solution absorbed is 2 ml/kg by oral administration and 1 ml/kg by intravenous injection. A thrombosis is induced at a time T (0.5, 2, 4 or 8 hours) after administration of the product, and the thrombus formed is removed and weighed. To induce this thrombosis, a venous stasis is created under hypercoagulation according to the technique described by WESSLER (J Applied Physiol., 1959, 943-946), the hypercoagulating agent used being a solution of activated factor X (Xa) having a concentration of 7.5 nKat/kg, supplied by Biogenic (Montpellier). The venous stasis is effected exactly 15 seconds after injection of the hypercoagulating agent. The activity of the test compounds was checked at different doses after they had been administered either orally (p.o.) or intravenously (i.v.). The thrombosis was induced 2 hours or 4 hours after oral administration of the compound and 2 hours after intravenous administration of the compound.

The mark [1] stands for this setting: Rattus norvegicus, iv, 2 h, intravenous, thrombosis induced 2 h after administration, read-out: Activity % (percentage inhibition of thrombus formation).
Where [2] appears, read: Rattus norvegicus, po, 4 h, oral, thrombosis induced 4 h after administration, read-out: Activity % (percentage inhibition of thrombus formation).
Setting [3] is: intravenous, dose 2.5 mg/kg, thrombosis induced 2 h after administration.
[4] abbreviates: Rattus norvegicus, po, 2 h, oral, thrombosis induced 2 h after administration, read-out: Activity % (percentage inhibition of thrombus formation).

Counter-ions that a name gives are not always drawn. Like-named read-outs stand apart in the source and are kept apart here.

As to `CC(=O)O[C@@H]1[C@@H](OC(C)=O)[C@H](OC(C)=O)CS[C@H]1Oc1cccnc1` [Example 1A, 3-Pyridinyl 2,3,4-tri-O-acetyl-5-thio-β-D-Xylopyranoside Methanesulfonate], the inhibition in vivo at 4 mg/kg under setting [1] is 83%. Further, under setting [2], the inhibition in vivo at 6 mg/kg amounted to 51%.

As for `O[C@@H]1[C@@H](O)[C@H](Oc2cccnc2)SC[C@H]1O` [Example 2, 3-Pyridinyl 5-Thio-β-D-Xylopyranoside], the inhibition in vivo at 2.5 mg/kg (Rattus norvegicus, iv, 2 h, intravenous, dose 2.5 mg/kg, thrombosis induced 2 h after administration, read-out: Activity % (percentage inhibition of thrombus formation)) was determined as 72%. Besides, the inhibition in vivo at 1.5 mg/kg (Rattus norvegicus, po, 4 h, oral, dose 1.5 mg/kg, thrombosis induced 4 h after administration, read-out: Activity % (percentage inhibition of thrombus formation)) was found to be 67%. For the same compound, the inhibition in vivo at 3 mg/kg under setting [2] turned out to be 91%.

As to `CS(=O)(=O)O.O[C@@H]1[C@@H](O)[C@H](Oc2cccnc2)SC[C@H]1O` [Example 2A, 3-Pyridinyl 5-Thio-β-D-Xylopyranoside Methanesulfonate], under setting [1], the inhibition in vivo at 5 mg/kg worked out at 94%. Also, the inhibition in vivo at 4.2 mg/kg (Rattus norvegicus, po, 2 h, oral, dose 4.2 mg/kg, thrombosis induced 2 h after administration, read-out: Activity % (percentage inhibition of thrombus formation)) was 96%. The “Activity % (percentage inhibition of thrombus formation)” value under setting [3] was found to be 68%.

With `Cl.O[C@@H]1[C@@H](O)[C@H](Oc2cccnc2)SC[C@H]1O` [Example 2C, 3-Pyridinyl 5-Thio-β-D-Xylopyranoside Hydrochloride], the inhibition in vivo at 4 mg/kg under setting [1] was 95%. Besides, the inhibition in vivo at 6 mg/kg under setting [2] came out at 55%. Further, under setting [3], the “Activity % (percentage inhibition of thrombus formation)” value worked out at 72%.

With `Cc1ncccc1O[C@@H]1SC[C@@H](O)[C@H](O)[C@H]1O` [Example 12, 2-Methyl-3-Pyridinyl 5-Thio-β-D-Xylopyranoside], under setting [2], the inhibition in vivo at 3 mg/kg came to 52%.

`O[C@@H]1[C@@H](O)[C@H](Oc2cncc(Cl)c2)SC[C@H]1O` [Example 18, 5-Chloro-3-Pyridinyl 5-Thio-β-D-Xylopyranoside]: the inhibition in vivo at 3 mg/kg under setting [2] was 46%.

In the case of `N#Cc1ncccc1O[C@@H]1SC[C@@H](O)[C@H](O)[C@H]1O` [Example 20, 2-Cyano-3-Pyridinyl 5-Thio-β-D-Xylopyranoside], under setting [2], the inhibition in vivo at 3 mg/kg was 50%.

For the compound `COC(=O)O[C@@H]1[C@@H](OC(=O)OC)[C@H](OC(=O)OC)CS[C@H]1Oc1cccnc1` [Example 31A, 3-Pyridinyl 2,3,4-Tris-O-(Methoxycarbonyl)-5-Thio-β-D-Xylopyranoside Hydrochloride], the inhibition in vivo at 5.6 mg/kg (Rattus norvegicus, po, 4 h, oral, dose 5.6 mg/kg, thrombosis induced 4 h after administration, read-out: Activity % (percentage inhibition of thrombus formation)) came to 63%.

With `COC(=O)O[C@@H]1[C@@H](OC(=O)OC)[C@H](OC(=O)OC)CS[C@H]1Oc1cccnc1` [Example 31B, 3-Pyridinyl 2,3,4-Tris-O-(Methoxycarbonyl)-5-Thio-β-D-Xylopyranoside Methanesulfonate], under setting [1], the inhibition in vivo at 5 mg/kg amounted to 88%. Under “Rattus norvegicus, po, 4 h, oral, dose 8 mg/kg, thrombosis induced 4 h after administration, read-out: Activity % (percentage inhibition of thrombus formation)”, the inhibition in vivo at 8 mg/kg was determined as 94%.

For `CC(=O)O[C@@H]1[C@@H](OC(C)=O)[C@H](OC(C)=O)CS[C@H]1Oc1cccnc1Cl` [Example 36, 2-Chloro-3-Pyridinyl 2,3,4-Tri-O-Acetyl-5-Thio-β-D-Xylopyranoside], the inhibition in vivo at 6 mg/kg under setting [4] amounted to 91%.

For `O[C@@H]1[C@@H](O)[C@H](Oc2cccnc2Cl)SC[C@H]1O` [Example 37, 2-Chloro-3-Pyridinyl 5-Thio-β-D-Xylopyranoside], under setting [4], the inhibition in vivo at 6 mg/kg came to 96%.

On to `O[C@@H]1[C@@H](O)[C@H](Oc2ccc(C(F)(F)F)nc2)SC[C@H]1O` [Example 41, 6-(Trifluoromethyl)-3-Pyridinyl 5-Thio-β-D-Xylopyranoside], for which the inhibition in vivo at 6 mg/kg under setting [4] was 97%.

Turning to `O[C@@H]1[C@@H](O)[C@H](Oc2cncc(F)c2)SC[C@H]1O` [Example 49, 5-Fluoro-3-Pyridinyl 5-Thio-β-D-Xylopyranoside], the inhibition in vivo at 6 mg/kg under setting [4] stood at 90%.

With `CCCC(=O)O[C@@H]1[C@@H](OC(=O)CCC)[C@H](OC(=O)CCC)CS[C@H]1Oc1cccnc1` [Example 93, 3-Pyridinyl 2,3,4-Tri-O-Butanoyl-5-Thio-β-D-Xylopyranoside], the inhibition in vivo at 6 mg/kg under setting [4] amounted to 81%.

Source of the values: patent US7470671B2, “Thioxylose compounds, preparation method thereof, pharmaceutical compositions containing same and use thereof in therapeutics” (Laboratoire Fournier, priority 2003, dated 2008).
